“And” between values parts separate entries of the source, which are not always exact repeats. Identical values can stand only once. Like-named read-outs stand apart in the source and are kept apart here.

The nature of data set [1]: Toxicity (lethal effect, LD50) in mice. Type of data set: in vivo. How it is done:
(§1) Determination of toxicity of 1-methyl-2-phenylthiomethyl-3-carbethoxy-5-oxy-6-bromindol sulfon as compared with arbidol.
(§2) The administration of the preparations was carried out endogastrically, the period of observation of the animals was 14 days.

The test system of the next data set is influenza virus H3N2. Type of data set: in vivo, mice.
Data set [2] deals with influenza virus A/PR/8/34. Type of data set: cell-based. The settings on record: influenza virus A/PR/8/34, MDCK cells; concentration not given.
Data set [3] is described as follows: Toxicity (lethal effect, LD50) in rats. The class given is in vivo. How it is done: as §1, §2
Data set [4] has as its system influenza A/Singapore/1/57 virus. Kind of data set: microbe, parasite or virus in culture. Type of data set: cell-based. The conditions noted are these: for suppression of reproduction: ten times greater amount (than 3.3 mg) of zanamivir or oseltamivir without the addition of arbidol.
In data set [5] the test system is avian influenza virus (H5N1). Type of data set: in vivo, white mice. The conditions noted are these: Oseltamivir 2.5 mg/kg alone (Arbidol 0 mg/kg), orally.
[6] abbreviates: Dose 100 mg/kg, endogastrically, observation 14 days.
Where [7] appears, read: Dose 250 mg/kg, endogastrically, observation 14 days.
Where [8] appears, read: Dose 500 mg/kg, endogastrically, observation 14 days.
[9] abbreviates: Dose 1000 mg/kg, endogastrically, observation 14 days.
Where [10] appears, read: Dose 3000 mg/kg, endogastrically, observation 14 days.
[11] abbreviates: Dose 5000 mg/kg, endogastrically, observation 14 days.
Setting [12] is: Dose 7500 mg/kg, endogastrically, observation 14 days.
[13] abbreviates: Influenza A virus, MDCK, read-out: percent of inhibition of viral reproduction.

For the compound `CCOC(=O)c1c(CS(=O)(=O)c2ccccc2)n(C)c2cc(Br)c(O)cc12` [Sulfon, 1-methyl-2-phenylthiomethyl-3-carbethoxy-5-oxy-6-bromindol sulfon], the “Lethal effect upon administration to mice” value in data set [1] (setting [6]) was 0/6; in data set [1] (setting [7]), 0/6; in data set [1] (setting [8]), 0/6; in data set [1] (setting [9]), 0/6; in data set [1] (setting [10]), 2/6; in data set [1] (setting [11]), 4/6. In data set [1] (setting [12]), the “Lethal effect upon administration to mice” value is on record as 6/6. Moreover, the “toxicity as compared with arbidol” value in data set [1] (Table 5 (mice and rats), endogastrically) is given as “significantly less toxic than arbidol”. In addition, the “LD50 relative to arbidol” value is 4 times in data set [1] (mice, sulfon LD50 versus arbidol LD50) and 3 times in data set [3] (rats, sulfon LD50 versus arbidol LD50). For the same compound, the LD50 (commonly the dose expected to kill half of the subjects tested) at 14 days was found to be 3600 ± 180 mg/kg in data set [1] (mouse, in vivo, oral, mice, endogastrically, observation 14 days) and 5350 ± 250 mg/kg in data set [3] (rat, in vivo, oral, rats, endogastrically, observation 14 days). In addition, the “Percent of surviving mice” value in the data set on influenza virus H3N2 (Concentration 15) is 90%; with influenza virus H3N2 (Concentration 30), 70%; in the data set on influenza virus H3N2 (Concentration 100), 40% and 50% and 60%. In the data set with influenza virus H3N2 (mouse, in vivo), the “antiviral action in vivo as compared with arbidol” value is reported as “comparable with the action of arbidol”. Besides, the “Percent of suppression of virus reproduction” value in data set [2] came out at 75%. Also, the “Lethal effect upon administration to rats” value in data set [3] (setting [6]) is recorded as 0/6; in data set [3] (setting [7]), 0/6; in data set [3] (setting [8]), 0/6; in data set [3] (setting [9]), 0/6; in data set [3] (setting [10]), 2/6; in data set [3] (setting [11]), 4/6. In addition, the “Lethal effect upon administration to rats” value in data set [3] (setting [12]) is recorded as 6/6.

Regarding “1-methyl-2-(4-methylphenylsulfomethyl-3-carbethoxy-4-dimethylaminomethyl-5-oxy-6-bromindol”, the “Percent of inhibition of OD 490” value is reported as 10% in data set [4] (A or B 0.3 μg/ml + Zanamivir 0.3 μg, added 2 hours after infection); 15% in data set [4] (A or B 0.3 μg/ml + Zanamivir 1 μg, added 2 hours after infection); 21% in data set [4] (A or B 0.3 μg/ml + Zanamivir 3.3 μg, added 2 hours after infection); 30% in data set [4] (A or B 0.3 μg/ml + Zanamivir 10 μg, added 2 hours after infection); 40% in data set [4] (A or B 0.3 μg/ml + Zanamivir 33 μg, added 2 hours after infection); “no” in data set [4] (A or B 0.3 μg/ml alone (Zanamivir 0), added 2 hours after infection). Besides, the “Percent of inhibition of OD 490” value is 21% in data set [4] (A or B 1 μg/ml + Zanamivir 0.3 μg, added 2 hours after infection); 26% in data set [4] (A or B 1 μg/ml + Zanamivir 1 μg, added 2 hours after infection); 30% in data set [4] (A or B 1 μg/ml + Zanamivir 3.3 μg, added 2 hours after infection); 85% in data set [4] (A or B 1 μg/ml + Zanamivir 10 μg, added 2 hours after infection); 83% in data set [4] (A or B 1 μg/ml + Zanamivir 33 μg, added 2 hours after infection); “no” in data set [4] (A or B 1 μg/ml alone (Zanamivir 0), added 2 hours after infection). Besides, the “Percent of inhibition of OD 490” value in data set [4] (A or B 3 μg/ml + Zanamivir 0.3 μg, added 2 hours after infection) is reported as 40%; in data set [4] (A or B 3 μg/ml + Zanamivir 1 μg, added 2 hours after infection) it was 45%; in data set [4] (A or B 3 μg/ml + Zanamivir 3.3 μg, added 2 hours after infection) it was 80%; in data set [4] (A or B 3 μg/ml + Zanamivir 10 μg, added 2 hours after infection) it was 90%; in data set [4] (A or B 3 μg/ml + Zanamivir 33 μg, added 2 hours after infection), 87%; in data set [4] (A or B 3 μg/ml alone (Zanamivir 0), added 2 hours after infection), “no”. Further, the “Percent of inhibition of OD 490” value in data set [4] (A or B 5 μg/ml + Zanamivir 0.3 μg, added 2 hours after infection) was 52%; in data set [4] (A or B 5 μg/ml + Zanamivir 1 μg, added 2 hours after infection), 80%; in data set [4] (A or B 5 μg/ml + Zanamivir 3.3 μg, added 2 hours after infection) it was 75%; in data set [4] (A or B 5 μg/ml + Zanamivir 10 μg, added 2 hours after infection), 96%; in data set [4] (A or B 5 μg/ml + Zanamivir 33 μg, added 2 hours after infection), 95%; in data set [4] (A or B 5 μg/ml alone (Zanamivir 0), added 2 hours after infection), “no”. Also, the “Percent of inhibition of OD 490” value in data set [4] (A or B 10 μg/ml + Zanamivir 0.3 μg, added 2 hours after infection) is given as 50%; in data set [4] (A or B 10 μg/ml + Zanamivir 1 μg, added 2 hours after infection), 75%; in data set [4] (A or B 10 μg/ml + Zanamivir 3.3 μg, added 2 hours after infection), 90%; in data set [4] (A or B 10 μg/ml + Zanamivir 10 μg, added 2 hours after infection), 100, 100%; in data set [4] (A or B 10 μg/ml + Zanamivir 33 μg, added 2 hours after infection), 100, 100%; in data set [4] (A or B 10 μg/ml alone (Zanamivir 0), added 2 hours after infection), 10%.

For the compound `CCOC(=O)C1=C[C@@H](OC(CC)CC)[C@H](NC(C)=O)[C@@H](N)C1` [Oseltamivir], the “Percent of inhibition of OD 490” value was 36% and 18% in data set [4] (Oseltamivir 0.4 μg alone (A or C 0 μg/ml), two values: A series, C series, added 2 hours after infection); 37% and 20% in data set [4] (Oseltamivir 4.1 μg alone (A or C 0 μg/ml), two values: A series, C series, added 2 hours after infection); 48% and 34% in data set [4] (Oseltamivir 12.3 μg alone (A or C 0 μg/ml), two values: A series, C series, added 2 hours after infection); 52% and 36% in data set [4] (Oseltamivir 41 μg alone (A or C 0 μg/ml), two values: A series, C series, added 2 hours after infection). In data set [4], this compound registered a suppression of reproduction of 50%. In addition, in data set [5], the “Surviving mice, %” value came out at 60%.

In the case of `CC(=O)N[C@H]1[C@H]([C@H](O)[C@H](O)CO)OC(C(=O)O)=C[C@@H]1N=C(N)N` [Zanamivir], the “Percent of inhibition of OD 490” value in data set [4] (Zanamivir 0.3 μg alone (A or B 0 μg/ml), two values: A series, B series, added 2 hours after infection) is 27% and 15%; in data set [4] (Zanamivir 1 μg alone (A or B 0 μg/ml), two values: A series, B series, added 2 hours after infection), 29% and 15%; in data set [4] (Zanamivir 3.3 μg alone (A or B 0 μg/ml), two values: A series, B series, added 2 hours after infection), 36% and 20%; in data set [4] (Zanamivir 10 μg alone (A or B 0 μg/ml), two values: A series, B series, added 2 hours after infection) it was 43% and 22%; in data set [4] (Zanamivir 33 μg alone (A or B 0 μg/ml), two values: A series, B series, added 2 hours after infection) it was 49% and 28%. In data set [4], this compound showed a suppression of reproduction of 50%.

Take `NC12CC3CC(CC(C3)C1)C2` [Amantadin]: the “Percent of inhibition of OD 490” value in data set [4] (Amantadin 5 μg/ml alone (A or D 0 μg/ml), two values: A series, D series, added 30 min prior to infection) is 50% and 30%; in data set [4] (Amantadin 10 μg/ml alone (A or D 0 μg/ml), two values: A series, D series, added 30 min prior to infection) it was 56% and 38%.

Turning to `NC(=O)c1ncn([C@@H]2O[C@H](CO)[C@@H](O)[C@H]2O)n1` [Ribavirin], in data set [4] (setting [13]), the inhibition (in general, how much of the control response was suppressed) at 1 µg/mL is 5%; the inhibition at 3 µg/mL came to 25%; the inhibition at 10 µg/mL was determined as 30%; the inhibition at 15 µg/mL came to 38%.

The values above are taken from patent publication US20090326037A1 (priority 2005, published 2009).
